Experimental data from ChEMBL document CHEMBL3826905, “1'-Homonucleosides and their structural analogues: A review” (Eur J Med Chem, 2016).
In brackets after ≈: the same amount, converted by molar mass.

How the values were obtained:
[1] = biological target: T1, Inosine-uridine preferring nucleoside hydrolase (Crithidia fasciculata, UniProt Q27546); test: Inhibition of Crithidia fasciculata inosine-uridine nucleoside hydrolase expressed in Escherichia coli using p-nitrophenyl beta-D-ribofuranoside as substrate by xanthine oxidase coupled enzyme assay
T1 sequence (Q27546 whole entry): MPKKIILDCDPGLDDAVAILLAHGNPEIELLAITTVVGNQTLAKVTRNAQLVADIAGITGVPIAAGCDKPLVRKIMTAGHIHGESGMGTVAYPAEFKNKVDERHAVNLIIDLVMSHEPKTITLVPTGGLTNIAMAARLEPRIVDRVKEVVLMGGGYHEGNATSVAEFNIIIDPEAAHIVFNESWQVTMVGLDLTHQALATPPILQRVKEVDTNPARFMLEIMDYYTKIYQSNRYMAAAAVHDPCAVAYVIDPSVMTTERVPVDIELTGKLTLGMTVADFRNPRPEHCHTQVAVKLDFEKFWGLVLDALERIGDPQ

[2] = biological target: T2, Inosine-adenosine-guanosine-nucleoside hydrolase (Trypanosoma brucei brucei, UniProt O15727); test: Inhibition of Trypanosoma brucei brucei inosine-adenosine-guanosine nucleoside hydrolase expressed in Escherichia coli
T2 sequence (O15727 whole entry): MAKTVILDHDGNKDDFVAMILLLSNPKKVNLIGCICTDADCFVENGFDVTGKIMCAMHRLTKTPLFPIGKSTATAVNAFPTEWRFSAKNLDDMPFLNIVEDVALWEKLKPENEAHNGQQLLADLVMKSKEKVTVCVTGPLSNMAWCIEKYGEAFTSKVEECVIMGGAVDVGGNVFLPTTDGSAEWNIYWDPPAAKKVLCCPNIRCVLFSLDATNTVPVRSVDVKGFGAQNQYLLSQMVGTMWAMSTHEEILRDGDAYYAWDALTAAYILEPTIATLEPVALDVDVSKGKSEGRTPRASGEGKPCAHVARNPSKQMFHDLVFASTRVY

[3] = tested on: Influenza A virus; test: Antiviral activity against Influenza A virus; type: functional, organism-based
[4] = Cytostatic activity against mouse L1210/0 cells; type: functional, cell-based; conditions: Mus musculus, L1210/0
[5] = tested on: CCRF-CEM; test: Cytostatic activity against human CEM/0 cells; type: functional, cell-based
[6] = tested on: MOLT-4; test: Cytostatic activity against human Molt4/C8 cells; type: functional, cell-based; conditions: Homo sapiens, MOLT-4
[7] = Antiproliferative activity against mouse L1210/0 cells; type: functional, cell-based
[8] = Antiproliferative activity against human Molt4/C8 cells; type: functional, cell-based; conditions: MOLT-4
[9] = tested on: Hepatitis C virus; test: Antiviral activity against Hepatitis C virus; type: functional, organism-based, Hepacivirus hominis
[10] = Inhibition of Escherichia coli methionyl-tRNA synthetase assessed as decrease in [35S]methionyl-tRNA generation
[11] = Antiproliferative activity against mouse L1210/0 cells after 48 hrs by trypan blue staining method; type: functional, cell-based; conditions: L1210/0, 48 h
[12] = biological target: Isoleucine--tRNA ligase (Escherichia coli K-12, UniProt P00956); test: Inhibition of Escherichia coli isoleucyl-tRNA synthetase assessed as decrease in [3H]isoleucyl-tRNA generation
Isoleucine--tRNA ligase, sequence (P00956 whole entry): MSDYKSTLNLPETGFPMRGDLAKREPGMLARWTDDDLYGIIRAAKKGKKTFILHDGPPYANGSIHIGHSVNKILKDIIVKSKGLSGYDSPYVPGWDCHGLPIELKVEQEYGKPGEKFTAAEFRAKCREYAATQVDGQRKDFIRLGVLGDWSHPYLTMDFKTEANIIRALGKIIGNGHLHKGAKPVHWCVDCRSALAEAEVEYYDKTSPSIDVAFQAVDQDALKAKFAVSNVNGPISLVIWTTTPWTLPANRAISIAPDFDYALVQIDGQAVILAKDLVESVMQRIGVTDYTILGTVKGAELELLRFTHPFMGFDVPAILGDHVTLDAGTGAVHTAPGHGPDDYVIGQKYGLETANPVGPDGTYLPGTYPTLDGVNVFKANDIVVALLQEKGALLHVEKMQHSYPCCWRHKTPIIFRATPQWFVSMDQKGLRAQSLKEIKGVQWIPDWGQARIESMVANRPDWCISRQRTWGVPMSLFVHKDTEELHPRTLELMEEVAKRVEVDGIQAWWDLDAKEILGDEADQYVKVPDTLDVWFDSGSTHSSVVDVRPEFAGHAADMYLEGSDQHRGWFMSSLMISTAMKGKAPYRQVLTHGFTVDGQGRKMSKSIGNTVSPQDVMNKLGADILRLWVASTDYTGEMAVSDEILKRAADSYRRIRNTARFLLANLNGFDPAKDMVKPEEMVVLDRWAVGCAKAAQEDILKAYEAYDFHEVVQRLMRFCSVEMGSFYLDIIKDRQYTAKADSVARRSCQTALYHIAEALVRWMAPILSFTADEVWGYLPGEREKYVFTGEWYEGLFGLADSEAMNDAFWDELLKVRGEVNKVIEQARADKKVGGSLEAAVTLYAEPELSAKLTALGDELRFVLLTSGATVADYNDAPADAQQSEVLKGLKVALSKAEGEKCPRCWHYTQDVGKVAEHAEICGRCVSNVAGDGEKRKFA

[13] = Antiproliferative activity against human CEM/0 cells; type: functional, cell-based; conditions: CCRF-CEM
[14] = Cytotoxicity against African green monkey Vero cells assessed as alteration in cell morphology by microscopic method; type: cell-based; conditions: chlorocebus sabaeus
[15] = Cytotoxicity against human E6SM cells assessed as alteration in cell morphology by microscopic method; type: cell-based
[16] = Cytotoxicity against human CEM/0 cells assessed as reduction in cell viability; type: cell-based, CCRF-CEM
[17] = Cytotoxicity against human HeLa cells assessed as alteration in cell morphology by microscopic method; type: cell-based
[18] = Cytotoxicity against HEL cells assessed as reduction in cell viability; type: cell-based; conditions: human
[19] = tested on: Human immunodeficiency virus 1; test: Antiviral activity against HIV1; type: functional, organism-based
[20] = tested on: Human immunodeficiency virus 2; test: Antiviral activity against HIV2; type: functional, organism-based

Q: With `Nc1nc(O)c2ncn(C[C@@H]3N[C@H](CO)[C@@H](O)[C@H]3O)c2n1` as the compound, how does the Ki [1] read?
A: 5.4 µM

Q: What about the Ki [2] of the same compound?
A: 3.6 µM

Q: Which IC50 [3] does the source give for `O=c1ccn(C[C@H]2C[C@H](OCc3ccccc3)[C@@H](COCc3ccccc3)O2)c(=O)[nH]1` here?
A: 108 µg/mL (≈ 256 µM)

Q: For `OC[C@H]1C[C@@H](Cn2cnc3c(NC4CC4)ncnc32)c2ccccc21`, which IC50 [4] is on record?
A: 24 µg/mL (≈ 71.6 µM)

Q: And the IC50 [5]?
A: 24 µg/mL (≈ 71.6 µM)

Q: What about the IC50 [6] of the same compound?
A: 24 µg/mL (≈ 71.6 µM)

Q: With `O=c1[nH]c(=O)n([C@H]2CC[C@@H](CO)C2)cc1I` as the compound, how does the IC50 [7] read?
A: 73 µg/mL (≈ 217 µM)

Q: What about the IC50 [8] of the same compound?
A: 73 µg/mL (≈ 217 µM)

Q: With `Cc1cn(C[C@@H]2C[C@H](CO)c3ccccc32)c(=O)[nH]c1=O` as the compound, how does the IC50 [4] read?
A: 81 µg/mL (≈ 283 µM)

Q: And the IC50 [5]?
A: 81 µg/mL (≈ 283 µM)

Q: What about the IC50 [6] of the same compound?
A: 81 µg/mL (≈ 283 µM)

Q: With `O=c1[nH]cnc2c1ncn2C[C@H]1C[C@H](O)[C@@H](CO)O1` as the compound, how does the IC50 [3] read?
A: 25.2 µg/mL (≈ 94.6 µM)

Q: With `O=C(OCC12C=CC(O1)c1cc3ccccc3cc12)c1ccccc1` (stereo not given) as the compound, how does the EC50 [9] read?
A: 6.31 µM

Q: For `CSCC[C@H](N)C(=O)OC[C@H]1O[C@@H](n2cnc3c(N)ncnc32)[C@H](O)[C@@H]1O`, which IC50 [10] is on record?
A: 5 µM

Q: Which results are given for `OC[C@H]1N[C@@H](Cn2cnc3c(O)ncnc32)[C@H](O)[C@@H]1O`?
A: Ki [1]: 5.4 µM; Ki [2]: 3.6 µM

Q: With `Nc1ncnc2c1ncn2C[C@H]1C[C@H](OCc2ccccc2)[C@@H](COCc2ccccc2)O1` as the compound, how does the IC50 [3] read?
A: 39.9 µg/mL (≈ 89.6 µM)

Q: For `OC[C@@]12O[C@@](Cn3cnc4c(Cl)ncnc43)(c3ccccc31)[C@H](O)[C@@H]2O`, which EC50 [9] is on record?
A: 45.1 µM

Q: For `Nc1nc(NC2CCCC2)c2ncn(C[C@@H]3C[C@H](CO)c4c(-c5ccccc5)nnc(-c5ccccc5)c43)c2n1`, which IC50 [11] is on record?
A: 65.7 µM

Q: Which EC50 [9] does the source give for `O[C@H]1C[C@@]2(Cn3cnc4c(Cl)ncnc43)O[C@@H]1c1ccccc12` here?
A: 45.1 µM

Q: With `Cc1cn(C[C@H]2C[C@H](O)[C@@H](CO)O2)c(=O)[nH]c1=O` as the compound, how does the IC50 [3] read?
A: 70.4 µg/mL (≈ 275 µM)

Q: For `CC[C@H](C)[C@H](N)C(=O)N(O)C[C@H]1O[C@@H](Cn2cnc3c(N)ncnc32)[C@H](O)[C@@H]1O`, which IC50 [12] is on record?
A: > 128 µM

Q: Which results are given for `OCC1CCCC1n1cnc2c(Cl)ncnc21` (stereo not given)?
A: IC50 [13]: 19 µg/mL (≈ 75.2 µM); IC50 [7]: 19 µg/mL (≈ 75.2 µM); IC50 [8]: 19 µg/mL (≈ 75.2 µM)

Q: Which CC50 [14] does the source give for `Nc1nc(Cl)c2ncn(C[C@H]3CC[C@@H](CO)C3)c2n1` here?
A: 1 µg/mL (≈ 3.55 µM)

Q: What about the CC50 [15] of the same compound?
A: 1 µg/mL (≈ 3.55 µM)

Q: And the CC50 [16]?
A: 1 µg/mL (≈ 3.55 µM)

Q: And the CC50 [17]?
A: 1 µg/mL (≈ 3.55 µM)

Q: What about the CC50 [18] of the same compound?
A: 1 µg/mL (≈ 3.55 µM)

Q: With `Cn1ncc2c1[C@@H](CO[Si](c1ccccc1)(c1ccccc1)C(C)(C)C)C[C@H]2Cn1cnc2c(O)ncnc21` as the compound, how does the IC50 [4] read?
A: 3.2 µg/mL (≈ 5.94 µM)

Q: What about the IC50 [5] of the same compound?
A: 3.2 µg/mL (≈ 5.94 µM)

Q: And the IC50 [6]?
A: 3.2 µg/mL (≈ 5.94 µM)

Q: Which IC50 [11] does the source give for `Nc1nc(Cl)c2ncn(C[C@@H]3C[C@H](CO)c4c(-c5ccccc5)nnc(-c5ccccc5)c43)c2n1` here?
A: > 200 µM

Q: For `Cc1ccc(-c2ncnc3c2ncn3C[C@@H]2C[C@H](CO)c3ccccc32)cc1`, which IC50 [4] is on record?
A: 1.4 µg/mL (≈ 3.78 µM)

Q: And the IC50 [5]?
A: 1.4 µg/mL (≈ 3.78 µM)

Q: And the IC50 [6]?
A: 1.4 µg/mL (≈ 3.78 µM)

Q: Which IC50 [4] does the source give for `Cn1ncc2c1[C@H](Cn1cnc3c(Cl)nc(N)nc31)C[C@@H]2CO` here?
A: 3.2 µg/mL (≈ 9.59 µM)

Q: And the IC50 [5]?
A: 3.2 µg/mL (≈ 9.59 µM)

Q: What about the IC50 [6] of the same compound?
A: 3.2 µg/mL (≈ 9.59 µM)

Q: With `Nc1ncnc2c1ncn2C[C@H]1CCC[C@H]1CO` as the compound, how does the IC50 [13] read?
A: 100 µg/mL (≈ 404 µM)

Q: What about the IC50 [7] of the same compound?
A: 100 µg/mL (≈ 404 µM)

Q: And the IC50 [8]?
A: 100 µg/mL (≈ 404 µM)

Q: Which results are given for `CC1(C)[C@@H](Cn2cnc3c(Cl)nc(N)nc32)CC[C@@]1(C)CO`?
A: EC50 [19]: 4 µg/mL (≈ 12.4 µM); IC50 [7]: 16.2 µg/mL (≈ 50 µM); EC50 [20]: 4 µg/mL (≈ 12.4 µM); IC50 [8]: 13.2 µg/mL (≈ 40.8 µM)

Q: What does the source list for `Nc1ncnc2c1N=CC2[C@@H]1N[C@H](CO)[C@@H](O)[C@H]1O` (stereo not given in full)?
A: Ki [1]: 0.007 µM; Ki [2]: 0.003 µM

Q: Which EC50 [9] does the source give for `OCC12CCC(O1)c1cc3ccccc3cc12` (stereo not given) here?
A: 6.31 µM

Q: Which IC50 [3] does the source give for `O=c1[nH]cnc2c1ncn2C[C@H]1C[C@H](OCc2ccccc2)[C@@H](COCc2ccccc2)O1` here?
A: 24.3 µg/mL (≈ 54.4 µM)

Q: For `O=c1[nH]c(=O)n(C2CCCC2CO)cc1I` (stereo not given), which IC50 [13] is on record?
A: 65.8 µg/mL (≈ 196 µM)

Q: What about the IC50 [7] of the same compound?
A: 65.8 µg/mL (≈ 196 µM)

Q: And the IC50 [8]?
A: 65.8 µg/mL (≈ 196 µM)

Q: Which results are given for `CC1(C)[C@@H](Cn2cnc3c(N)nc(N)nc32)CC[C@@]1(C)CO`?
A: EC50 [19]: 4 µg/mL (≈ 13.1 µM); EC50 [20]: 4 µg/mL (≈ 13.1 µM)

Q: Which IC50 [4] does the source give for `CCOc1ncnc2c1ncn2C[C@@H]1C[C@H](CO)c2ccccc21` here?
A: 24 µg/mL (≈ 74 µM)

Q: What about the IC50 [5] of the same compound?
A: 24 µg/mL (≈ 74 µM)

Q: And the IC50 [6]?
A: 24 µg/mL (≈ 74 µM)

Q: Which IC50 [3] does the source give for `Cc1cn(C[C@H]2C[C@H](OCc3ccccc3)[C@@H](COCc3ccccc3)O2)c(=O)[nH]c1=O` here?
A: 70.3 µg/mL (≈ 161 µM)
